According to article PMC11820896, “New Compounds with Enhanced Biological Activity Through the Strategic Introduction of Silylated Groups into Hydroxystearic Acids” (Molecules, 2025):

Legend:
[1] = tested on: HT29 cells; test: Mitochondrial potential by JC-1 staining; format: cell-based, human; details: 24 h treatment
Method: JC-1 is a dye that is permeable to alive cells and is accumulated in the anionic mitochondrial matrix indicating the level of mitochondrial potential. When present at low concentrations, the JC-1 monomer fluorescence is green (around 535 nm), while at increased concentration, it can aggregate and fluoresces in the red (600 nm). The ratio between the red fluorescence and the green one is directly proportional to the mitochondrial activity. […] Negative controls were treated in the same way, but JC-1 was not added to these samples. The plates were read on the Ensight plate reader, exciting the red fluorescence at 506 nm and the green one at 488 nm, while the emission was, respectively, read at 595 nm and 535 nm, and the ratio between the red and green fluorescence was calculated.

[2] = MTT assay, Caco-2 cells; format: cell-based, human; details: human, versus normal I407 cells, read-out: S.I. (Selective Index), Caco-2
Method: (§1) The human colorectal adenocarcinoma (Caco-2), human colorectal adenocarcinoma (HT29), normal human intestinal (I407), human cervical cancer (HeLa), human breast cancer (MCF7), human bone osteosarcoma (U2OS), and human acute T-cell leukemia (Jurkat J6) cell lines were purchased from American Type Culture Collection (ATCC, Manassas, VA, USA). Cells were cultured in RPMI 1640 medium (Labtek Eurobio, Milan, Italy), supplemented with 10% FCS (Euroclone, Milano, Italy) and 2 mM L-glutamine (Sigma-Aldrich, Milano, Italy), at 37 °C and in a 5% CO2 atmosphere. The compounds were dissolved in DMSO in a 30–40 mM stock solution. In cell treatments, the final DMSO concentration never exceeded 0.1%.
(§2) Cells were seeded in a 96-well culture plastic plate (Sarsted, Milan, Italy), at 5 × 10^4 cells/well and, after 24 h, were exposed to increasing concentrations of the different compounds (from 1 nM to 500 nM) dissolved in RPMI 1640 medium. An MTT assay was performed according to Micheletti et al..
(§3) The absorbance at 570 nm was measured using a multi-well plate reader (Tecan, Männedorf, Switzerland), and data were analyzed by Prism GraphPad 8 software and expressed as IC50 nM.

[3] = tested on: Caco-2; test: MTT assay, Caco-2 cells; format: cell-based, human; details: Homo sapiens, MTT after 24 h of treatment, means of four experiments
Method: as §1, §2, §3

[4] = tested on: HT29 cells; test: Western blot of γH2AX (DNA damage); format: cell-based, human; details: 50 nM, 6 h
Method: (§4) HT29 were seeded at a density of 1.5 × 10^4 cell/cm^2 in a Petri dish and, after 24 h, treated for 6 h with 50 nM of compound 4. Cells were harvested, and histones were extracted by previously isolated nuclei according to […] al.. The proteins were resolved on a 10% gel in MES buffer at 200 V for 35 min and immunoblotted with mouse anti-acetylated lysines (Millipore, Billerica, MA, USA) or rabbit anti-γH2Ax (Santa Cruz Biotechnology, Dallas, TX, USA) primary antibodies. The membranes were developed with Clarity Western ECL Substrate (Bio-Rad, Hercules, CA, USA) after incubation with mouse or rabbit secondary horseradish peroxidase-conjugated antibody (GE Healthcare, Chicago, IL, USA). SDS-PAGE was stained with Coomassie Brilliant Blue R-250 (Bio-Rad, Hercules, CA, USA), while densitometric analyses were performed using a Fluor-S Max MultiImager (Bio-Rad, Hercules, CA, USA), and relative quantification of histone acetylation and histone H2Ax phosphorylation signals were normalized to the H1 signal as a control.

[5] = tested on: HT29 cells; test: Cellular content of total magnesium (DCHQ5 assay); format: cell-based, human; details: 24 h treatment
Method: To evaluate the total magnesium, the fluorimetric DCHQ5 assay was performed according to Nature Protocol. Briefly, the cells were washed in PBS without Mg and Ca three times, accurately counted, and sonicated at 100 W. A standard curve was prepared with a concentration of MgCl2 between 0.5 and 5 µM in buffer MOPS 2 mM in 50% MetOH. The fluorescent probe DCHQ5 15 µM was added, and the fluorescence was recorded on a PTI Quanta Master C60/2000 spectrofluorometer (Photon Technology International, Inc., Birmingham, NJ, USA). A total of 200 µL of the samples was diluted in the MOPS MetOH buffer, DCHQ5 15 µM was added, and the fluorescence was recorded. The amount of Mg was evaluated by interpolating the fluorescence of the sample with respect to the standard curve expressed as nmoles of magnesium/10^6 cells.

[6] = tested on: HeLa; test: MTT assay, HeLa cells; format: cell-based; details: Homo sapiens, means of four experiments, na = not active, read-out: In vitro cytotoxic activity (IC50), HeLa
Method: as §1, §2, §3

[7] = tested on: FASN; test: FASN mRNA expression, qRT-PCR; format: cell-based, human; details: after 6 h of treatment, HT29
Method: Total RNA from control- and 4-treated HT29 cells was isolated using the RNeasy Mini Kit (Qiagen, Hilden, Germany) according to the manufacturer's protocol. RNA was quantified using the NanoDrop spectrophotometer (Thermo Fisher Scientific, Waltham, MA, USA). RNA (1 μg) was transcribed into cDNA using the PrimeScript RT Master Mix (Perfect Real Time) (Takara Bio, Kusatsu, Japan) according to the manufacturer's instructions. Real-time PCR was performed using the Sybr Premix Ex Taq Takara kit (Takara Bio, Kusatsu, Japan) and the LightCycler 2.0 instrument (Roche Diagnostic, Basel, Switzerland). The following primers (Sigma-Aldrich, Milan, Italy) were used: [NT] (forward) and [NT] (reverse) for FASN detection, [NT] (forward) and [NT] (reverse) for SCD1 detection, and [NT] (forward) and [NT] (reverse) for the detection of β-actin. The first gene analyzed was the housekeeping gene β-actin, and its CT values were used as standards in the ΔΔCT method of result analysis. cDNA samples from HT29-treated cells were compared with untreated control cells.

[8] = tested on: histones H2/H3 and H4 of HT29 cells; test: Histone acetylation status, Western blot; format: cell-based, human; details: 50 nM, 6 h
Method: as §4

[9] = tested on: MCF7; test: MTT assay, MCF7 cells; format: cell-based; details: Homo sapiens, means of four experiments, na = not active, read-out: In vitro cytotoxic activity (IC50), MCF7
Method: as §1, §2, §3

[10] = tested on: HCT116; test: MTT assay, HCT116 cells; format: cell-based, human
Method: as §2, with “Micheletti et” left out, “al.. The absorbance at 570 nm was measured using a multi-well plate reader (Tecan, Männedorf, Switzerland), and data were analyzed by Prism GraphPad 8 software and expressed as IC50 nM.” for “al..”

[11] = tested on: I407; test: MTT assay, normal I407 cells; format: cell-based; details: Homo sapiens; normal intestinal line; MTT after 24 h of treatment; means of four experiments
Method: as §1, §2, §3

For `CCCCCCCCC[C@H](CCCCCCCC(=O)O)O[Si](C)(C)C(C)(C)C` [Compound 4, (R)-9-((tert-butyldimethylsilyl)oxy)octadecanoic acid], the “change in mitochondrial potential” value [1] was “does not lead to a change”, the selectivity ratio [2] was 2.65 and the IC50 [3] was 23.39 ± 0.12 nM. The “changes in the γH2AX marker” value [4] was “does not induce any changes”, the “reduction in the Mg content” value [5] was −40% and the IC50 [6] was 166.1 ± 0.33 nM. For the same compound, the FASN gene expression [7] was “marked down-regulation”, the “acetylation state of histones H2/H3 and H4” value [8] was “extended increase” and the IC50 [9] was 211.6 ± 0.23 nM. For the same compound, the IC50 ([10]; Homo sapiens, HCT-116, MTT after 24 h of treatment, means of four experiments) was 21.49 ± 0.16 nM, the “S.I. (Selective Index), HCT116” value ([10]; versus normal I407 cells) was 2.88 and the IC50 [11] was 61.91 ± 0.26 nM.
